# Reference: patent publication US20170273916A1, “METHODS FOR TREATING AND PREVENTING NEURODEGENERATIVE DISEASES” (priority 2016, published 2017)
# Entries after “also recorded” stand apart in the source; their conditions may differ.
# Columns and labels:
# NGF-induced PC12 cells = assay: Viability of NGF-induced PC12 cells treated with extracts and compounds (CCK-8 assay); format: cell-based; settings: Rattus norvegicus, PC-12, 24 hr incubation, CCK-8, FIGS. 1A-1E, read-out: IC50 (cell viability)
# Protocol: PC12 cells were cultured in RPMI 1640 medium (5% fetal bovine serum, 10% heat-inactivated horse serum, 2 mM glutamine, 50 U/mL penicillin, […] streptomycin), at 37° C., 5% CO2, subculture twice a week.
# PC12 cells need to be cultured in medium containing Nerve growth factor (NGF) 2.5S, (100 ng/mL) in advance for NGF-induced neuronal differentiation.
# Cell Counting Kit-8(CCK-8) allows sensitive colorimetric assays for the determination of cell viability in cell proliferation and cytotoxicity assays. Dojindo's highly water-soluble tetrazolium salt, WST-8, is reduced by dehydrogenase activities in cells to give a yellow-color formazan dye, which is soluble in the tissue culture media. The amount of the formazan dye, generated by the activities of dehydrogenases in cells, is directly proportional to the number of living cells. The detection sensitivity of CCK-8 is higher than the other tetrazolium salts such as MTT, XTT, MTS or WST-1.
# To optimize the exemplary extracts (ANCA, ANCA-D) and compounds (Antrocamol LT1, LT2, LT3) concentration for NGF-induced PC12 neural model, titration experiments were performed to determine the IC50 values of extracts and compounds. 5 x 10^4 NGF-induced PC12 cells were cultured in 96-well dish for 24 hr. Then the cells were cultured in medium with 1% fetal bovine serum, 2% heat-inactivated horse serum, 2 mM glutamine, 50 U/mL penicillin, […] streptomycin RPMI 1640 medium, then various concentrations of extracts [ANCA, ANCA-D (0.064, 0.32, 1.6, 8, 40, 200 μg/mL)] and compounds [Antrocamol LT1, LT2, LT3 (0.032, 0.16, 0.8, 4, 20, 100 μg/mL) were added individually and incubated for 24 hr. After treatment, the CCK-8 solution was added to each well of plates and incubates the plates for 4 hr in the incubator. The concentration of the formazan product was determined spectrophotometrically at an absorbance wavelength 450 nm and cell viability was expressed as a percentage of the corresponding control.
# [1] = test system: Aβ-induced PC12 cell model; assay: Prophylactic effect on Aβ-induced PC12 AD cell model (sample pretreatment, then aggregated Aβ; CCK-8 cell viability); format: cell-based, rat; settings: sample 24 h, then aggregated Aβ 24 h; for prophylactic effect on AD cell model (preventing Aβ-induced neuronal damage, cell viability): FIGS. 3A-3E, concentration not given
# Protocol: (§1) β-Amyloid 1-40 (Aβ) was dissolved in 0.1% (v/v) trifluoroacetic acid (TFA) in water at 10 mg/ml and stored at −20° C. as a stock solution. Af3 was diluted to 0.5 mg/ml with phosphate-buffered saline solution (PBS, without Ca2+) and aggregate at 25° C. for 48 hr before use. To investigate the therapeutic effect of extracts (ANCA, ANCA-D) and compounds (Antrocamol LT1, LT2, LT3) on Alzheimer disease (AD) cell model in vitro, cultures were pretreated with Aβ for 24 h and then exposed to freshly prepared extracts (ANCA, ANCA-D) and compounds (Antrocamol LT1, LT2, LT3) for 24 hr before cell viability measurements. In contrast, to investigate the prophylactic effect of extracts (ANCA, ANCA-D) and compounds (Antrocamol LT1, LT2, LT3) on AD cell model, cultures were pretreated with extracts (ANCA, ANCA-D) and compounds (Antrocamol LT1, LT2, LT3) for 24 h and then exposure to aggregated Aβ for 24 h before cell viability measurements. The cell viability was estimated by below formulation:
# (§2) Cell viability (%)=(Sample-Blank)/(Control-Blank)×100%
# [2] = test system: Aβ-induced PC12 cell model; assay: Therapeutic effect on Aβ-induced PC12 AD cell model (Aβ pretreatment, then sample; CCK-8 cell viability); format: cell-based, rat; settings: Aβ 24 h, then sample 24 hr; for therapeutic effect on AD cell model (inhibition of Aβ-induced damage, cell viability): FIGS. 2A-2E, concentration not given
# Protocol: as §1, §2
Compound,IC50 (NGF-induced PC12 cells),"prophylactic effect on AD cell model (preventing Aβ-induced neuronal damage, cell viability) [1]",inhibitory effect on Aβ-induced damage (therapeutic) ([2]; 25 μg/mL),inhibitory effect on Aβ-induced damage (therapeutic) ([2]; 50 μg/mL),inhibitory effect on Aβ-induced damage (therapeutic) ([2]; 100 μg/mL),"therapeutic effect on AD cell model (inhibition of Aβ-induced damage, cell viability) [2]","prophylactic effect compared with extracts ([1]; 100 μg/mL, 50 μg/mL, 25 μg/mL)"
"COC1=C(OC)[C@H](O)[C@H](C/C=C(\C)CC/C=C(\C)C/C=C/C(C)(C)O)[C@@H](C)C1=O [LT3, (4R,5R,6R)-4-hydroxy-5-[(2E,6E,9E)-11-hydroxy-3,7,11-trimethyldodeca-2,6,9-trienyl]-2,3-dimethoxy-6-methylcyclohex-2-enone]",106 mg/L,significant impact in preventing; also recorded: weak preventing effect,weak,significant inhibitory effect,significant inhibitory effect,significantly inhibited Aβ-induced damage and improved the cell viability,–
"COC1=C(OC)[C@H](O)[C@H](C/C=C(\C)CC/C=C(\C)CC(O)C=C(C)C)[C@@H](C)C1=O (stereo partly shown) [LT1, 4-hydroxy-5-[9-hydroxy-3,7,11-trimethyldodeca-2,6,10-trienyl]-2,3-dimethoxy-6-methyl-cyclohex-2-enone]",178 mg/L,significant impact in preventing,weak,significant inhibitory effect,significant inhibitory effect,significantly inhibited Aβ-induced damage and improved the cell viability,better prophylactic effect than extracts
"COC1=C(OC)[C@H](OC(C)=O)[C@H](C/C=C(\C)CC/C=C(\C)CC(O)C=C(C)C)[C@@H](C)C1=O (stereo partly shown) [LT2, 4-acetoxy-5-[9-hydroxy-3,7,11-trimethyldodeca-2,6,10-trienyl]-2,3-dimethoxy-6-methyl-cyclohex-2-enone]",168 mg/L,significant impact in preventing; also recorded: weak preventing effect,weak,significant inhibitory effect,significant inhibitory effect,significantly inhibited Aβ-induced damage and improved the cell viability,–
